Assay results: patent publication US9751861B2, “N1-(3,3,3-trifluoro-2-hydroxo-2-methylpropionyl)-piperidine derivatives as inhibitors of pyruvate dehydrogenase kinase” (MERCK PATENT GMBH, priority 2013, dated 2017)

Experiments:
PDH-Elalpha (pSer300) = assay: Cellular immunofluorescence assay in HEK293T cells; format: cell-based; details: Homo sapiens, HEK-293T, 5 hours incubation, anti-PDH-E1alpha pSer300 immunofluorescence, read-out: IC50 (cell data)
Method: Cellular Assay for Determination of Compound Activities
Compound activities were determined in a cellular immunofluorescence assay. Human HEK293T cells were seeded into black 384-well plates with clear bottom and grown overnight.
Next day, test compounds were added to the wells and the plates incubated for 5 hours. Following this, cells were fixed with formaldehyde, permeabilised and blocked. The primary antibody, Anti-PDH-Elalpha (pSer300), AP1064 (Merck Millipore) was added and incubated overnight in the plate wells. Next, cells were washed and the seconday antibody, Alexa Fluor 488, goat anti-rabbit ab (A-11008, Invitrogen) was added together with Hoechst 33258 (H3569, Invitrogen) and incubated for 1 hour in the plate wells. Finally, cells were washed and the plates were measured on the laser scanning cytometer acumen hci (TTpLabtech).
The raw data were normalized against a pharmacological inhibitor control and dose response curves were generated by plotting the percent effect values using the software package Genedata screener (Genedata).

PDHK2 = target: T1, PDHK2 (Homo sapiens, UniProt Q15119); assay: Biochemical activity testing of PDHK2: PDC inactivation assay; details: human rec PDHK2, PDC from porcine heart, ATP 5 μM; read-out: IC50 PDHK2 (enzyme assay)
T1 construct: purchased Carna Bioscience
From the text: Biochemical Activity Testing of PDHK2: PDC Inactivation Assay
The biochemical activity assay for PDHK2 is based on the inactivation of PDC through phosphorylation by PDHK2. The assay is run in two steps: the enzymatic PDHK2 reaction in which isolated PDC is phosphorylated by PDHK2 with ATP as co-substrate and the PDC activity assay in which pyruvate and NAD are converted to acetyl-CoA and NADH. The PDC activity correlates to the increase in NADH and thereby is detectable directly via the increasing fluorescence signal (Exc 340 nm, Em 450 nm). Inhibition of PDHK2 results in a lower phosphorylation status and thereby a less decrease in activity of PDC and a stronger increase in NADH fluorescence signal.
The PDC inactivation assay is performed in Greiner 384-well microtiter plates and is used for high throughput screen. 4 μl of PDHK2 (human, rec, Carna Bioscience, 10 ng/μl-137 nM final concentration) and PDC (isolated from porcine heart, Sigma-Aldrich, 20 mU/ml final concentration) are incubated in the absence or presence of the test compound (10 dilution concentrations) for 30 min at room temperature in kinase buffer (15 mM potassium phosphate buffer, pH 7.0, 60 mM KCl, 1.5 mM DTT, 2.5 mM MgCl2, 0.0125% (w/v) BSA, 0.125% Pluronic F-68). The kinase reaction is started by the addition of 4 μl ATP substrate solution (fc 5 μM in kinase buffer). After 30 min incubation at 37° C. 40 μl of PDC reaction solution (100 mM Tris/HCl, pH 7.8, 0.5 mM EDTA, 1 mM MgCl2, 50 mM NaF, 0.25 mM Coenzyme A, 5 mM pyruvate, 1 mM NAD, 5 mM DTT, […] thiamine pyrophosphate) is added. The first fluorescence measurement is performed on a Perkin Elmer Envision (Exc 340 nm, Em 450 nm). The reaction is incubated for 45 min at room temperature. Afterwards a second fluorescence measurement is performed and the PDC activity is calculated by the difference between both measurements. As full value for the PDHK2 assay the inhibitor-free PDHK2 reaction is used. The pharmacological zero value used is DCA (Sigma-Aldrich) in a final concentration of 3 mM. The inhibitory values (IC50) were determined using either the program Symyx Assay Explorer® or Condosseo® from GeneData.

human PDHK2 (12-407) = target: T2, human PDHK2 (12-407) (Homo sapiens, UniProt Q15119); assay: Isothermal titration calorimetry (ITC) binding; details: 30° C., pH 7.5
T2 construct: The human PDHK2 (12-407) was produced in E. coli; His-tag (cleaved yes); made in house; host or cells: E. coli
Method: Isothermal Titration Calorimetry
ITC measurements were performed with a VP-ITC micro calorimeter (Microcal, LLC/GE Healthcare Bio-Sciences AB, Uppsala, Sweden). In general titrations were performed by titrating the protein (50 μM) to the test compound (5 μM) in 12 μl injections. All binding experiments were carried out at 30° C. In general the test compounds were diluted form DMSO stock solutions into the measurement buffer with a maximum final concentration of 1% DMSO. The measurement buffer was 20 mM HEPES, 135 mM KCl, 1 mM TCEP, 2 mM MgCl2, 15 mM NaH2PO4, pH 7.5. The human PDHK2 (12-407) was produced in E. coli as his-tagged protein and purified by affinity chromatography. The tag was removed by side specific proteolysis. Before titration the protein buffer was changed to the measurement buffer containing the same DMSO concentration as the test compound dilution. ITC data analysis was performed using Origin 7 calorimetry software from the same supplier. For most measurements a binding model of one binding site was assumed. According to the applied mathematical model it is possible to calculate the binding constant (KA), the observed binding enthalpy (ΔH^obs) as well as the stoichiometry (N) of the formed complex. Preceding analysis the raw data was corrected for the heats of dilution by extrapolating from the saturation value from the end of titration. In order to allow for direct comparison between the respective experimental series and protein preparations the protein concentration was corrected by referencing titrations to a well behaved standard inhibitor. The apparent stoichiometry values defined the fraction of binding competent protein and compensated for relative errors in protein concentration measurements. This corrected protein concentration was used to set up ITC experiment series with test compounds. Any deviations from ideal 1:1 stoichiometry observed here were attributed to errors in compound concentration. This nominal compound concentration was corrected as well to achieve 1:1 stoichiometry in the fit.

In the case of CC1CN(C(=O)[C@@](C)(O)C(F)(F)F)CCC1c1ccnn1-c1ccc(F)cc1F (mixture of isomers) [Compound A31, (R)-1-{4-[2-(2,4-difluoro-phenyl)-2H-pyrazol-3-yl]-3-methyl-piperidin-1-yl}-3,3,3-trifluoro-2-hydroxy-2-methyl-propan-1-one], the IC50 (PDH-Elalpha (pSer300)) is reported as < 0.3 µM, the IC50 (PDHK2) is reported as < 0.3 µM and the Kd (human PDHK2 (12-407)) is reported as < 0.3 µM.

In the case of COc1ccc(-n2nccc2C2CCN(C(=O)C(C)(O)C(F)(F)F)CC2)c(F)c1 (racemic) [Compound A30, rac-3,3,3-Trifluoro-1-{4-[2-(2-fluoro-4-methoxy-phenyl)-2H-pyrazol-3-yl]-piperidin-1-yl}-2-hydroxy-2-methyl-propan-1-one], the IC50 (PDH-Elalpha (pSer300)) is reported as 0.3 to 3 µM, the IC50 (PDHK2) is reported as < 0.3 µM and the Kd (human PDHK2 (12-407)) is reported as < 0.3 µM.

Cc1ccc(-n2nccc2C2CCN(C(=O)[C@@](C)(O)C(F)(F)F)CC2)cc1 [Compound A1, (R)-3,3,3-trifluoro-2-hydroxy-2-methyl-1-[4-(2-p-tolyl-2H-pyrazol-3-yl)-piperidin-1-yl]-propan-1-one] was tested, and the IC50 (PDH-Elalpha (pSer300)) was 0.3 to 3 µM, the IC50 (PDHK2) was < 0.3 µM and the Kd (human PDHK2 (12-407)) was < 0.3 µM.

With COc1ccc(-n2nccc2C2CCN(C(=O)[C@@](C)(O)C(F)(F)F)CC2)cc1 [Compound A2, (R)-3,3,3-Trifluoro-2-hydroxy-1-{4-[2-(4-methoxy-phenyl)-2H-pyrazol-3-yl]-piperidin-1-yl}-2-methyl-propan-1-one] the IC50 (PDH-Elalpha (pSer300)) was 0.3 to 3 µM, the IC50 (PDHK2) was < 0.3 µM and the Kd (human PDHK2 (12-407)) was < 0.3 µM.

For C[C@@](O)(C(=O)N1CCC(c2ccnn2-c2ccccc2C#N)CC1)C(F)(F)F [Compound A3, 2-{5-[1-((R)-3,3,3-Trifluoro-2-hydroxy-2-methyl-propionyl)-piperidin-4-yl]-pyrazol-1-yl}-benzonitrile], the IC50 (PDH-Elalpha (pSer300)) was 0.3 to 3 µM and the Kd (human PDHK2 (12-407)) was 0.3 to 3 µM.

For COc1ccccc1-n1nccc1C1CCN(C(=O)[C@@](C)(O)C(F)(F)F)CC1 [Compound A7, (R)-3,3,3-Trifluoro-2-hydroxy-1-{4-[2-(2-methoxy-phenyl)-2H-pyrazol-3-yl]-piperidin-1-yl}-2-methyl-propan-1-one], the IC50 (PDH-Elalpha (pSer300)) was < 0.3 µM and the Kd (human PDHK2 (12-407)) was 0.3 to 3 µM.

In the case of C[C@H]1CN(C(=O)[C@@](C)(O)C(F)(F)F)CC[C@H]1c1ccnn1-c1ccc(F)cc1F [Compound A32, (R)-1-{(3R,4R)-4-[2-(2,4-difluoro-phenyl)-2H-pyrazol-3-yl]-3-methyl-piperidin-1-yl}-3,3,3-trifluoro-2-hydroxy-2-methyl-propan-1-one], the IC50 (PDH-Elalpha (pSer300)) is reported as 0.3 to 3 µM and the IC50 (PDHK2) is reported as < 0.3 µM.

With C[C@@H]1CN(C(=O)[C@@](C)(O)C(F)(F)F)CC[C@@H]1c1ccnn1-c1ccc(F)cc1F [Compound A33, (R)-1-{(3S,4S)-4-[2-(2,4-difluoro-phenyl)-2H-pyrazol-3-yl]-3-methyl-piperidin-1-yl}-3,3,3-trifluoro-2-hydroxy-2-methyl-propan-1-one] the IC50 (PDH-Elalpha (pSer300)) was < 0.3 µM and the IC50 (PDHK2) was < 0.3 µM.

For C[C@@](O)(C(=O)N1CCC(c2cnnn2-c2ccc(Cl)cc2)CC1)C(F)(F)F [Compound A58, (R)-1-{4-[3-(4-Chloro-phenyl)-3H-[1,2,3]triazol-4-yl]-piperidin-1-yl}-3,3,3-trifluoro-2-hydroxy-2-methyl-propan-1-one], the IC50 (PDHK2) was 0.3 to 3 µM and the Kd (human PDHK2 (12-407)) was 0.3 to 3 µM.

Cc1ccc(-n2nncc2C2CCN(C(=O)[C@@](C)(O)C(F)(F)F)CC2)c(F)c1 [Compound A60] was tested, and the IC50 (PDHK2) was 0.3 to 3 µM and the Kd (human PDHK2 (12-407)) was 0.3 to 3 µM.

C[C@@](O)(C(=O)N1CCC(n2nccc2-c2ccccc2)CC1)C(F)(F)F [Compound A66, (R)-3,3,3-Trifluoro-2-hydroxy-2-methyl-1-[4-(5-phenyl-pyrazol-1-yl)-piperidin-1-yl]-propan-1-one] was tested, and the IC50 (PDHK2) was 0.3 to 3 µM and the Kd (human PDHK2 (12-407)) was 0.3 to 3 µM.

C[C@@](O)(C(=O)N1CCC(c2nccn2-c2ccc(F)cc2)CC1)C(F)(F)F [Compound A67, (R)-3,3,3-Trifluoro-1-{4-[1-(4-fluoro-phenyl)-1H-imidazol-2-yl]-piperidin-1-yl}-2-hydroxy-2-methyl-propan-1-one] showed an IC50 (PDHK2) of 0.3 to 3 µM and a Kd (human PDHK2 (12-407)) of 0.3 to 3 µM.

Cc1ccc(-n2ccnc2C2CCN(C(=O)[C@@](C)(O)C(F)(F)F)CC2)cc1 [Compound A68, (R)-3,3,3-Trifluoro-2-hydroxy-2-methyl-1-[4-(1-p-tolyl-1H-imidazol-2-yl)piperidin-1-yl]-propan-1-one] gave an IC50 (PDHK2) of 0.3 to 3 µM and a Kd (human PDHK2 (12-407)) of 0.3 to 3 µM.

In the case of COc1ccc(-n2ccnc2C2CCN(C(=O)[C@@](C)(O)C(F)(F)F)CC2)cc1 [Compound A70, (R)-3,3,3-Trifluoro-2-hydroxy-1-{4-[1-(4-methoxy-phenyl)-1H-imidazol-2-yl]-piperidin-1-yl}-2-methyl-propan-1-one], the IC50 (PDHK2) is reported as 0.3 to 3 µM and the Kd (human PDHK2 (12-407)) is reported as 0.3 to 3 µM.

Molecule C[C@@](O)(C(=O)N1CCC(c2nncn2-c2ccc(F)cc2)CC1)C(F)(F)F [Compound A71, (R)-3,3,3-Trifluoro-1-{4-[4-(4-fluoro-phenyl)-4H-[1,2,4]triazol-3-yl]-piperidin-1-yl}-2-hydroxy-2-methyl-propan-1-one] has an IC50 (PDHK2) of 0.3 to 3 µM and a Kd (human PDHK2 (12-407)) of 0.3 to 3 µM.

C[C@@](O)(C(=O)N1CCC(c2nncn2-c2ccccc2)CC1)C(F)(F)F [Compound A72, (R)-3,3,3-Trifluoro-2-hydroxy-2-methyl-1-[4-(4-phenyl-4H-[1,2,4]triazol-3-yl)piperidin-1-yl]-propan-1-one] gave an IC50 (PDHK2) of 0.3 to 3 µM and a Kd (human PDHK2 (12-407)) of 0.3 to 3 µM.

C[C@@](O)(C(=O)N1CCC(c2ccnn2C2CC2)CC1)C(F)(F)F [Compound A74, (R)-1-[4-(2-Cyclopropyl-2H-pyrazol-3-yl)-1-piperidyl]-3,3,3-trifluoro-2-hydroxy-2-methyl-propan-1-one] was tested, and the IC50 (PDHK2) was 0.3 to 3 µM and the Kd (human PDHK2 (12-407)) was < 0.3 µM.

In the case of COc1ccc(-n2ccc(C3CCN(C(=O)[C@@](C)(O)C(F)(F)F)CC3)n2)nn1 [Compound A105, (R)-3,3,3-Trifluoro-2-hydroxy-1-{4-[1-(6-methoxy-pyridazin-3-yl)-1H-pyrazol-3-yl]-piperidin-1-yl}-2-methyl-propan-1-one], the IC50 (PDHK2) is reported as 0.3 to 3 µM and the Kd (human PDHK2 (12-407)) is reported as 0.3 to 3 µM.

Work on C[C@H]1CN(C(=O)[C@@](C)(O)C(F)(F)F)CC[C@H]1c1ccnn1-c1ccc(F)cc1 [Compound A108, (R)-3,3,3-Trifluoro-1-{(3R,4R)-4-[2-(4-fluoro-phenyl)-2H-pyrazol-3-yl]-3-methyl-piperidin-1-yl}-2-hydroxy-2-methyl-propan-1-one] yielded an IC50 (PDHK2) of 0.3 to 3 µM and a Kd (human PDHK2 (12-407)) of 0.3 to 3 µM.

C[C@@](O)(C(=O)N1CCC(c2ccnn2-c2ccon2)CC1)C(F)(F)F [Compound A122, (R)-3,3,3-Trifluoro-2-hydroxy-1-[4-(2-isoxazol-3-yl-2H-pyrazol-3-yl)-piperidin-1-yl]-2-methyl-propan-1-one] gave an IC50 (PDHK2) of 0.3 to 3 µM and a Kd (human PDHK2 (12-407)) of 0.3 to 3 µM.
